Test results published in ChEMBL document CHEMBL4665758, “Identification of 5H-chromeno[3,4-c]pyridine and 6H-isochromeno[3,4-c]pyridine derivatives as potent and selective dual ROCK inhibitors” (Bioorg Med Chem Lett, 2020).

Molecular target: Rho-associated protein kinase 2 (Homo sapiens, UniProt O75116)
Sequence (O75116 whole entry): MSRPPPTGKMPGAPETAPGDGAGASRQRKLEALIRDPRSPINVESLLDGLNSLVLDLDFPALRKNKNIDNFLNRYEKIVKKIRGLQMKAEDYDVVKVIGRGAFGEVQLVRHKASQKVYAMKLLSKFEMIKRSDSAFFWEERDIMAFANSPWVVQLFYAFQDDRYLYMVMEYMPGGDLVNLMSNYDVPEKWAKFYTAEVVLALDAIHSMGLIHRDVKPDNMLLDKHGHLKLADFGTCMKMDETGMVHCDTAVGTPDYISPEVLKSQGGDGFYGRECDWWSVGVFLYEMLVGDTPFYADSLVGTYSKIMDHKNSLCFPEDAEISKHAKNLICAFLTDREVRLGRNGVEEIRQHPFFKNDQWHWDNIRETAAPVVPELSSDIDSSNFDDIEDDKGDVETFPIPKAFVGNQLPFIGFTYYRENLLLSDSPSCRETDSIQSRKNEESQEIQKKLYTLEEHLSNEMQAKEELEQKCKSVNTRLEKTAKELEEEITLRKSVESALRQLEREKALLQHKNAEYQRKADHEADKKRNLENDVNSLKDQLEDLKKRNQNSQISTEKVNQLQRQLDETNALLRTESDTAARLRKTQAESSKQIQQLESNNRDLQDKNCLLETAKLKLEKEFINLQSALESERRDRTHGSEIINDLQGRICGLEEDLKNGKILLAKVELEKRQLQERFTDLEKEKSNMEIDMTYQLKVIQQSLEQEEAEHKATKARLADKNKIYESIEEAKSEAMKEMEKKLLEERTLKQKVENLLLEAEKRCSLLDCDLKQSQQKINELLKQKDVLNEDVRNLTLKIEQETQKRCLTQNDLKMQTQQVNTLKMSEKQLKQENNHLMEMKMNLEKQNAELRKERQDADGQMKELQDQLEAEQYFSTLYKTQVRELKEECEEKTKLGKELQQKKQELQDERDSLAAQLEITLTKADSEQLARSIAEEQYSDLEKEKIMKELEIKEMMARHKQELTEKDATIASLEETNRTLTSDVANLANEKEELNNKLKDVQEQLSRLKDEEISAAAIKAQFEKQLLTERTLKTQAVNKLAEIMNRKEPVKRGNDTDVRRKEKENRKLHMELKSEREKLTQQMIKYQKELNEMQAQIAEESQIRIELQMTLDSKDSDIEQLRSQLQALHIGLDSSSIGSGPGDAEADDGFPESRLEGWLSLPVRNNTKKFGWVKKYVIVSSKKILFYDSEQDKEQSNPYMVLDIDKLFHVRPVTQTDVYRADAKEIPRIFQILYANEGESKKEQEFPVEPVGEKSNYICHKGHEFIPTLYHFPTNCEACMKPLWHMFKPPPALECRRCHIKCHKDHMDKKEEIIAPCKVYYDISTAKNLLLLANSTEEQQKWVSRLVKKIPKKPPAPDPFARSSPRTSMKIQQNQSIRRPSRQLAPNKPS

IC50 [nM]	SMILES
20	C[C@H]1CNCCCN1S(=O)(=O)c1cccc2cncc(F)c12

Molecular target: Rho-associated protein kinase 1 (Homo sapiens, UniProt Q13464)
Sequence (Q13464 whole entry): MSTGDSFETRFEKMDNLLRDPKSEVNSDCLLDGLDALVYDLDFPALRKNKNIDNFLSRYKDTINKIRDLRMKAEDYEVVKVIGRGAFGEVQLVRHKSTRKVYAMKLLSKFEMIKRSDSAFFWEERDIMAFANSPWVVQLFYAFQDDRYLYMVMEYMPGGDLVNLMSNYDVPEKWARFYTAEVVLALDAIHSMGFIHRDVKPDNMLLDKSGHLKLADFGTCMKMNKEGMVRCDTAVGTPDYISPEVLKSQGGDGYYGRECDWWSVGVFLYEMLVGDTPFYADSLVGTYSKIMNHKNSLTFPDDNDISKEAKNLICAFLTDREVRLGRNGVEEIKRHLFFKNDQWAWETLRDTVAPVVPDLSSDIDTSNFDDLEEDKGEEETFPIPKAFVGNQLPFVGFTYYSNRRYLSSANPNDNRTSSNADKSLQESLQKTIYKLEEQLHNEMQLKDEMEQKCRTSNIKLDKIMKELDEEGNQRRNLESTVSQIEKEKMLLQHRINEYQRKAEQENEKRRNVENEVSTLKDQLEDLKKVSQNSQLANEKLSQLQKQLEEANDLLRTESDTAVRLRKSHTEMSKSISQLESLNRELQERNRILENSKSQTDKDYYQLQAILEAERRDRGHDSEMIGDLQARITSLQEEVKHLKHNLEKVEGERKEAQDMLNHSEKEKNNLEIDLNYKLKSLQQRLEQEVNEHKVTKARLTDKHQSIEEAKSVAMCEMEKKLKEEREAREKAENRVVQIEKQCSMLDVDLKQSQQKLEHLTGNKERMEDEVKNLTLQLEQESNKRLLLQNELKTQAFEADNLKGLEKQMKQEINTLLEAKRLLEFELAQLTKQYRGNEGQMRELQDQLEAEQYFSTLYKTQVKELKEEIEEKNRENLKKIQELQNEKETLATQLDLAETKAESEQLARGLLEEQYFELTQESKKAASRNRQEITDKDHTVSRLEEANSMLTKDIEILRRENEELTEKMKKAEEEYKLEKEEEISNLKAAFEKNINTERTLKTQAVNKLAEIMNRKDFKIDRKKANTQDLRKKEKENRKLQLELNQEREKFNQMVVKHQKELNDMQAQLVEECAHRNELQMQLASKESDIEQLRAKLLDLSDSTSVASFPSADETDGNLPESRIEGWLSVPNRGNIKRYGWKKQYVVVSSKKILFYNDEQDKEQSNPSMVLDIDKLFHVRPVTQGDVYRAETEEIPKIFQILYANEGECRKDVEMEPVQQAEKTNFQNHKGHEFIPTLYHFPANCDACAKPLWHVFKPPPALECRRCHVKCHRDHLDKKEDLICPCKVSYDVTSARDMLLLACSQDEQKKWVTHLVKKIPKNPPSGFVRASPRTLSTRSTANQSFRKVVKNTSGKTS

SMILES	IC50 [nM]
N[C@@H](COc1ccc2c(c1)OCc1cnccc1-2)Cc1ccccc1	71
N[C@H](Cc1ccccc1)C(=O)Nc1ccc2c(c1)OCc1cnccc1-2	19
N[C@@H](C(=O)Nc1ccc2c(c1)OCc1cnccc1-2)c1ccccc1	16
COc1cccc(C(C)NC(=O)c2ccc3c(c2)OCc2cnccc2-3)n1 (configuration not stated)	27
C[C@@H](NC(=O)c1ccc2c(c1)OCc1cnccc1-2)c1ccccc1	18
O=C(Cc1ccccc1)Nc1ccc2c(c1)OCc1cnccc1-2	140
COc1cccc([C@@H](C)NC(=O)c2ccc3c(c2)COc2cncnc2-3)c1	38
CCC1Oc2cnccc2-c2ccc(C(=O)N[C@H](C)c3cccc(OC)c3)cc21 (mixture of isomers)	0.63
CCC1Oc2cnccc2-c2ccc(C(=O)N[C@H](C)c3cccc(OC)c3)cc21 (stereo in doubt; 18)	2
CCC1Oc2cnccc2-c2ccc(C(=O)N[C@H](C)c3cccc(OC)c3)cc21 (stereo in doubt; 19)	0.67

Next, values leading:

IC50 [nM]	SMILES
4.1	COc1cccc([C@@H](C)NC(=O)c2ccc3c(c2)C(C2CC2)Oc2cnccc2-3)c1 (some centres not stated)
0.49	COc1cccc([C@@H](C)NC(=O)c2ccc3c(c2)C(C)Oc2cnccc2-3)c1 (some centres not stated)
171	COc1cccc([C@@H](C)NC(=O)c2ccc3c(c2)COc2cnc(N)cc2-3)c1
1.2	CCN1CCC[C@H]1CNC(=O)c1cccc(CNC(=O)c2ccc3c(c2)C(C)Oc2cnccc2-3)c1 (mixture of isomers)
15	COc1cccc([C@@H](C)NC(=O)c2ccc3c(c2)OC(C)c2cnccc2-3)c1 (mixture of isomers)
20	CCNC(=O)c1cc(CNC(=O)c2ccc3c(c2)C(CC)Oc2cnccc2-3)ccc1F (racemic)
